Results on one substance are retold here after patent publication US8158575B2, “Agent for the prevention and treatment of sexually transmitted diseases-I” (priority 2001, dated 2012).

One data set concerns HIV-1 (IIIB). Type of data set: cell-based. As to conditions: strain IIIB (HIV-1), MT-4 cells. As to the method: (§1) The human immunodeficiency virus strains used were HIV-1 (IIIB)^1 and HIV-2 (ROD)^2. Anti-retroviral activity and cytotoxicity measurements were carried out in parallel. […] After the MT-4 cells were allowed to proliferate for 5 days, the number of viable cells was quantified by a tetrazolium-based calorimetric 3-(4,5-dimethylthiazol-2-yl)-2,5-diphenyltetrazolium bromide (MTT) procedure in 96-well microtrays.^3
(§2) In all of these assays, viral input (viral multiplicity of infection, MOI) was 0.01, or 100 times the 50% cell culture infective dose (CCID50). […] Average EC50 and CC50 values for several separate experiments are presented as defined above. […] SI is the antiviral selectivity index CC50/EC50.

The test system of a further data set is HIV-2 (ROD). Nature of the data set: Anti-retroviral activity in HIV-infected MT-4 cells (MTT). In kind it is cell-based. As to conditions: strain ROD (HIV-2). Here is the method:
as §1, §2

Another data set deals with HeLa CD4 LTR […]-gal cells. The experiment in a line: XTT toxicity on sister plate of the attachment assay. In kind it is cell-based. Here is the method: This assay is designed to detect compounds that interact with the cell and block virus attachment, and/or compounds which interact with the forming attachment/fusion complex. The attachment assay is performed with HeLa CD4 LTR […]-gal cells. HeLa CD4 LTR […]-gal cells are routinely cultured with the required selection antibiotics. Twenty-four h prior to initiation of the assay the cells are trypsinized, counted and 1×10^4 cells placed in a 0.2 cm well in media without selection antibiotics. At 24 h media is removed and compound in media placed on the cells and incubated for 15 min at 37° C. A known titer of the IIIB strain of HIV is then added to the wells and the incubation continued for 1 h. At the end of the incubation the wells are washed 3 times with media and the culture continued for 40 to 48 h. At termination of the assay, media is removed and […]-galactosidase enzyme expression determined by chemiluminescence per manufacturers instructions (Tropix Gal-screen™, Bedford Mass.) by a single step chemiluminescent method using a single solution to lyse the cells and detect […]-galactosidase enzyme activity. Compound toxicity is monitored on a sister plate by XTT dye reduction. […] The virus adsorption interval of 1 h is sufficiently short that AZT, which requires phosphorylation to its active tri-phosphate form (AZT-TTP), is not active in this assay.
For orientation: Tetrazolium assays rely on reduction of a dye to a coloured formazan, in cell work by metabolically active cells.

Data set [1] has as its target T1, cell-to-cell fusion mediated by HIV-1 Env and CD4 (Human immunodeficiency virus type 1 group M subtype B, UniProt P04578).
T1 construct: expressed in transfected cells; host or cells: HeLa CD4 LTR beta-gal cells (CD4) co-cultured with HL2/3 cells (HIV-1 Env)
Type of data set: cell-based. The following applies: TC50/IC50. As to the method:
The fusion assay assesses the ability of compounds to block cell-to-cell fusion mediated by HIV-1 Env and CD4 expressed on separate cells. This assay is sensitive to inhibitors of both the gp120/CD4 interaction and inhibitors of the X4 coreceptor. First, 5×10^3 HeLa CD4 LTR […]-gal cells are placed in microtiter wells and incubated overnight. The following day the media is removed and the HeLa CD4 LTR […]-gal cells are incubated for 1 h at 37° C. in fresh media with test compound. Following the incubation 5×10^3 HL2/3 cells are added and the incubation continued for 40 to 48 h. At 40 to 48 h […]-galactosidase enzyme expression is detected by chemiluminescence (Tropix Gal-screen™, Tropix, Bedford, Mass.). Compound toxicity is monitored on a sister plate using XTT dye reduction.

For another data set, the system named is HSV-2. Nature of the data set: Genital HSV prevention test in the mouse model. Type of data set: in vivo. As to the method: The efficacy of SPL-7013 was tested in a genital HSV prevention test in the mouse (strain MS) model. A dose of 15 μl of 100 mg/ml, or 10 mg/ml of the compound was instilled into the vagina of 16 animals 20 sec before HSV-2 infection. […] Total mortality in three days of the same number of control infected mice was used as an end-point of the tests.

The subject of data set [2] is human papillomavirus type 6b VLPs. Nature of the data set: Inhibition of uptake of HPV virus-like particles into A431 cells (flow cytometry). In kind it is cell-based. As to the method:
The compound was evaluated for its ability to inhibit the binding and uptake of human papillomavirus virus-like particles to a human epithelial cell line.
The compound was tested at a range of six dilutions as inhibitor of binding and of uptake of Papillomavirus fluorochrome-tagged Virus-Like-Particles (VLPs) of human papillomavirus type 6b. […] Assay of binding and uptake was determined using flow cytometry and inhibition of binding was reported as a percentage with respect to the binding observed in the absence of inhibitor. The tests were performed in two independent assays
Cells. The human epidermoid carcinoma cell line A431 was purchased from the American Type Culture Collection at passage 30 (CRL-1555, Batch F-13530) and maintained in DMEM in 10% FCS.
Human papillomavirus type 6b VLPs were grown and purified according to standard operating procedures. Particles were labelled with a fluorochrome.
The compound was re-dissolved in sterile water to the concentrations of 5 mM and used fresh for the first assay before being frozen at −20° C. It was then thawed for the second assay.
A T75 flask of A431 cells was washed with 10 ml of PBS/EDTA (0.05%) for 5 minutes at 37° C. before being treated with 2 ml trypsin for a further 5 minutes at 37° C. […]
Results were analysed using WinLisT. […]
(In general: A flow cytometer gives signals particle by particle.)

[3] abbreviates: 100 mg/ml intravaginal, 20 sec. prior to infection.

Values joined by “and” are separate entries in the source; they are usually repeats but may differ in a detail not shown here. Equal entries are not always repeated.

“BHAlyslys2lys4lys8lys16[NH—CO—CH2)O-3,6-Naphthyl-(SO3Na)2]32 [SPL-7013]”: the EC90 with HIV-1 (IIIB) came out at 0.954 µg/mL; in the data set with HIV-2 (ROD) it was 4.86 µg/mL. The EC50 is 0.45 µg/mL with HIV-1 (IIIB) (5 days) and 3.26 µg/mL in the data set on HIV-2 (ROD) (5 days). Further, the “Attachment Assay TC50” value in the data set on HeLa CD4 LTR […]-gal cells is more than 100 µg/mL. In addition, the “Fusion Assay TI” value in data set [1] is given as more than 141. Further, the “Animals Protected Against Infection (%)” value with HSV-2 (10 mg/ml intravaginal, 20 sec. prior to infection) is 10/12 (83%); in the data set with HSV-2 (setting [3]), 11/11 (100% and 12/12 (100%. Further, in the data set with HSV-2 (setting [3]), the “Animals Protected Against Disease (%)” value was 11/11 (100%) and 12/12 (100%). The “Prevention of HSV-2 infection and disease (in words)” value in the data set on HSV-2 (15 μl of 100 mg/ml or 10 mg/ml intravaginal 20 sec before HSV-2 infection) is “prevented infection and disease in all animals tested”. Further, the “Uptake of VLPs at maximal inhibition (% of VLPs alone)” value in data set [2] (1 μM, HPV 6b VLPs) came to 26%. Moreover, in data set [2] (at 1 μM and 10 nM), the “Uptake inhibition (in words)” value is given as “shown uptake inhibition”.

The EC90 is the point of the concentration-response curve where the effect stands at 90%. Lower therefore signals greater potency. By EC50 is commonly meant the concentration giving half of the maximal effect. A low value points to higher potency in that assay.
